From the supplement of paper PMC10307832

Key:
Assay in all cases: relative viability (nuclei count vs DMSO), 5 days (fraction); higher = more cells survive
CAL-12T = tested on: CAL-12T
Procedure, shortened: (§1)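 Dosing by pin tool came one day after lung cancer cell lines were seeded in 1536-well plates, using either one drug or a fixed anchor-drug dose plus five library-drug doses (not always all listed) in √10 steps. After 5 days, nuclei were counted on 4× images. Relative viability is treated-well nuclei count divided by vehicle-well nuclei count, and values are medians of duplicate plates.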

PC-3 [JPC-3] = tested on: PC-3 [JPC-3]
Procedure, shortened: as §1

NCI-H460 = tested on: NCI-H460
Procedure, shortened: as §1

EMC-BAC-2 = tested on: EMC-BAC-2
Procedure, shortened: as §1

LU99A = tested on: LU99A
Procedure, shortened: as §1

ABC-1 = tested on: ABC-1
Procedure, shortened: as §1

NCI-H1651 = tested on: NCI-H1651
Procedure, shortened: as §1

BEN = tested on: BEN
Procedure, shortened: as §1

HCC-15 = tested on: HCC-15
Procedure, shortened: as §1

NCI-H2023 = tested on: NCI-H2023
Procedure, shortened: as §1

NCI-H358 = tested on: NCI-H358
Procedure, shortened: as §1

NCI-H520 = tested on: NCI-H520
Procedure, shortened: as §1

NCI-H1563 = tested on: NCI-H1563
Procedure, shortened: as §1

201T = tested on: 201T
Procedure, shortened: as §1

COR-L 105 = tested on: COR-L 105
Procedure, shortened: as §1

NCI-H522 = tested on: NCI-H522
Procedure, shortened: as §1

NCI-H727 = tested on: NCI-H727
Procedure, shortened: as §1

NCI-H838 = tested on: NCI-H838
Procedure, shortened: as §1

EKVX = tested on: EKVX
Procedure, shortened: as §1

NCI-H322M = tested on: NCI-H322M
Procedure, shortened: as §1

SW 900 = tested on: SW 900
Procedure, shortened: as §1

LK-2 = tested on: LK-2
Procedure, shortened: as §1

Structure (SMILES): Cc1csc(=NC2CCCCC2)n1/N=C/c1ccc(O)c(O)c1O [MIM1] + Cc1nc(Nc2ncc(C(=O)Nc3c(C)cccc3Cl)s2)cc(N2CCN(CCO)CC2)n1 [Dasatinib] (partner 0.075 µM)
- relative viability (CAL-12T; first compound 0.2 µM): 0.258
- relative viability (CAL-12T; first compound 0.6325 µM): 0.38
- relative viability (CAL-12T; first compound 2 µM): 0.215
- relative viability (CAL-12T; first compound 6.325 µM): 0.311
- relative viability (CAL-12T; first compound 20 µM): 0.115
- relative viability (PC-3 [JPC-3]; first compound 0.2 µM): 1.03
- relative viability (PC-3 [JPC-3]; first compound 0.6325 µM): 0.976
- relative viability (PC-3 [JPC-3]; first compound 2 µM): 0.981
- relative viability (PC-3 [JPC-3]; first compound 6.325 µM): 0.904
- relative viability (PC-3 [JPC-3]; first compound 20 µM): 0.582
- relative viability (NCI-H460; first compound 0.2 µM): 0.508
- relative viability (NCI-H460; first compound 0.6325 µM): 0.42
- relative viability (NCI-H460; first compound 2 µM): 0.467
- relative viability (NCI-H460; first compound 6.325 µM): 0.327
- relative viability (NCI-H460; first compound 20 µM): 0.044
- relative viability (EMC-BAC-2; first compound 0.2 µM): 0.218
- relative viability (EMC-BAC-2; first compound 0.6325 µM): 0.302
- relative viability (EMC-BAC-2; first compound 2 µM): 0.317
- relative viability (EMC-BAC-2; first compound 6.325 µM): 0.31
- relative viability (EMC-BAC-2; first compound 20 µM): 0.179
- relative viability (LU99A; first compound 0.2 µM): 0.752
- relative viability (LU99A; first compound 0.6325 µM): 0.54
- relative viability (LU99A; first compound 2 µM): 0.48
- relative viability (LU99A; first compound 6.325 µM): 0.37
- relative viability (LU99A; first compound 20 µM): 0.21
- relative viability (ABC-1; first compound 0.2 µM): 0.598
- relative viability (ABC-1; first compound 0.6325 µM): 0.555
- relative viability (ABC-1; first compound 2 µM): 0.543
- relative viability (ABC-1; first compound 6.325 µM): 0.299
- relative viability (ABC-1; first compound 20 µM): 0.248
- relative viability (NCI-H1651; first compound 0.2 µM): 0.509
- relative viability (NCI-H1651; first compound 0.6325 µM): 0.464
- relative viability (NCI-H1651; first compound 2 µM): 0.458
- relative viability (NCI-H1651; first compound 6.325 µM): 0.282
- relative viability (NCI-H1651; first compound 20 µM): 0.182
- relative viability (BEN; first compound 0.2 µM): 0.304
- relative viability (BEN; first compound 0.6325 µM): 0.308
- relative viability (BEN; first compound 2 µM): 0.348
- relative viability (BEN; first compound 6.325 µM): 0.378
- relative viability (BEN; first compound 20 µM): 0.158
- relative viability (HCC-15; first compound 0.2 µM): 0.635
- relative viability (HCC-15; first compound 2 µM): 0.57
- relative viability (HCC-15; first compound 6.325 µM): 0.359
- relative viability (HCC-15; first compound 20 µM): 0.101
- relative viability (NCI-H2023; first compound 0.2 µM): 0.519
- relative viability (NCI-H2023; first compound 0.6325 µM): 0.719
- relative viability (NCI-H2023; first compound 2 µM): 0.435
- relative viability (NCI-H2023; first compound 6.325 µM): 0.249
- relative viability (NCI-H2023; first compound 20 µM): 0.0702
- relative viability (NCI-H358; first compound 0.2 µM): 0.182
- relative viability (NCI-H358; first compound 0.6325 µM): 0.174
- relative viability (NCI-H358; first compound 2 µM): 0.179
- relative viability (NCI-H358; first compound 6.325 µM): 0.173
- relative viability (NCI-H358; first compound 20 µM): 0.126
- relative viability (NCI-H520; first compound 0.2 µM): 0.19
- relative viability (NCI-H520; first compound 0.6325 µM): 0.21
- relative viability (NCI-H520; first compound 2 µM): 0.286
- relative viability (NCI-H520; first compound 6.325 µM): 0.18
- relative viability (NCI-H520; first compound 20 µM): 0.192
- relative viability (NCI-H1563; first compound 0.2 µM): 0.538
- relative viability (NCI-H1563; first compound 0.6325 µM): 0.508
- relative viability (NCI-H1563; first compound 2 µM): 0.43
- relative viability (NCI-H1563; first compound 6.325 µM): 0.524
- relative viability (NCI-H1563; first compound 20 µM): 0.488
- relative viability (201T; first compound 0.2 µM): 0.612
- relative viability (201T; first compound 0.6325 µM): 0.614
- relative viability (201T; first compound 2 µM): 0.598
- relative viability (201T; first compound 6.325 µM): 0.422
- relative viability (201T; first compound 20 µM): 0.445
- relative viability (COR-L 105; first compound 0.2 µM): 0.356
- relative viability (COR-L 105; first compound 0.6325 µM): 0.424
- relative viability (COR-L 105; first compound 2 µM): 0.339
- relative viability (COR-L 105; first compound 6.325 µM): 0.29
- relative viability (COR-L 105; first compound 20 µM): 0.292
- relative viability (NCI-H522; first compound 0.2 µM): 0.788
- relative viability (NCI-H522; first compound 0.6325 µM): 0.698
- relative viability (NCI-H522; first compound 2 µM): 0.93
- relative viability (NCI-H522; first compound 6.325 µM): 0.743
- relative viability (NCI-H522; first compound 20 µM): 0.585
- relative viability (NCI-H727; first compound 0.2 µM): 0.383
- relative viability (NCI-H727; first compound 0.6325 µM): 0.36
- relative viability (NCI-H727; first compound 2 µM): 0.276
- relative viability (NCI-H727; first compound 6.325 µM): 0.356
- relative viability (NCI-H727; first compound 20 µM): 0.267
- relative viability (NCI-H838; first compound 0.2 µM): 0.326
- relative viability (NCI-H838; first compound 0.6325 µM): 0.298
- relative viability (NCI-H838; first compound 6.325 µM): 0.314
- relative viability (NCI-H838; first compound 20 µM): 0.218
- relative viability (EKVX; first compound 0.2 µM): 0.591
- relative viability (EKVX; first compound 2 µM): 0.558
- relative viability (EKVX; first compound 6.325 µM): 0.514
- relative viability (EKVX; first compound 20 µM): 0.391
- relative viability (NCI-H322M; first compound 0.2 µM): 0.265
- relative viability (NCI-H322M; first compound 0.6325 µM): 0.245
- relative viability (NCI-H322M; first compound 2 µM): 0.249
- relative viability (NCI-H322M; first compound 6.325 µM): 0.27
- relative viability (NCI-H322M; first compound 20 µM): 0.38
- relative viability (SW 900; first compound 0.2 µM): 0.619
- relative viability (SW 900; first compound 0.6325 µM): 0.804
- relative viability (SW 900; first compound 2 µM): 0.508
- relative viability (SW 900; first compound 6.325 µM): 0.449
- relative viability (SW 900; first compound 20 µM): 0.23
- relative viability (LK-2; first compound 0.2 µM): 0.358
- relative viability (LK-2; first compound 2 µM): 0.202
- relative viability (LK-2; first compound 6.325 µM): 0.269
- relative viability (LK-2; first compound 20 µM): 0.176
